Data from US12440496B2, “Natriuretic peptide receptor a agonists useful for the treatment of cardiometabolic diseases, kidney disease and diabetes” (Merck Sharp & Dohme LLC, priority 2019, dated 2025).
Where a name gives a salt, the structure may show the parent alone.

Molecular target: T1, hNPRA (Homo sapiens, UniProt P16066)
T1 construct: expressed in transfected cells
T1 sequence (P16066 33-1061): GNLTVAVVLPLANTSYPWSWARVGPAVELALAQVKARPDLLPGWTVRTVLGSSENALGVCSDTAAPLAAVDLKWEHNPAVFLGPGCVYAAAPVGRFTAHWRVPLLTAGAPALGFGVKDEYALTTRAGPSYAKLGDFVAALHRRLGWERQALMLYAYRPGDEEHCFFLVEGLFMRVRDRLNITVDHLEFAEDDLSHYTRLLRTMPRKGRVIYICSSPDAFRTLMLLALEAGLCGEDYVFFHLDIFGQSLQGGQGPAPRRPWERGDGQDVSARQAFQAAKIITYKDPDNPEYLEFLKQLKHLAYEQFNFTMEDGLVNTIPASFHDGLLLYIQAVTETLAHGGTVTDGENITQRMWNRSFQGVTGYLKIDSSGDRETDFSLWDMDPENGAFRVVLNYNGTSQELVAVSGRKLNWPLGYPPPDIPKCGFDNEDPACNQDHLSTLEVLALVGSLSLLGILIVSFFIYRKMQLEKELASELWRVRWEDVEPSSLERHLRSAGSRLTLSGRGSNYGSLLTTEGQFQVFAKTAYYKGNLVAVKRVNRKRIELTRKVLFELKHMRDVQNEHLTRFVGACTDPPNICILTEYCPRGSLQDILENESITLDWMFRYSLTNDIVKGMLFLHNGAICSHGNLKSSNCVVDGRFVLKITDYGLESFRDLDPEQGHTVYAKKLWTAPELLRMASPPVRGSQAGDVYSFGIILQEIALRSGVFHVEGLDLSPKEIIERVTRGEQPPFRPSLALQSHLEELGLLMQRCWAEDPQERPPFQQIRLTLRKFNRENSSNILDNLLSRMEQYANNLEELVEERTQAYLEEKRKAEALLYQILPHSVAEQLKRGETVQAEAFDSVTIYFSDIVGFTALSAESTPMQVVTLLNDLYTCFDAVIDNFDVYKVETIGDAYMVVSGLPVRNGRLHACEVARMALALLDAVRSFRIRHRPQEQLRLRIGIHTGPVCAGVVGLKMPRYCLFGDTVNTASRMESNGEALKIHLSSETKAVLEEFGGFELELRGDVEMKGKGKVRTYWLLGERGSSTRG
Test: NPRA Functional Cell Assay (cGMP HTRF, NPRA HEK JumpIn stable cells)
Assay type: cell-based
Conditions: cGMP production, 1 hour at 37° C., 10-point dose response
In short: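 cGMP HTRF read-out after 1 hour compound treatment at 37° C. of human NPRA-expressing HEK JumpIn cells, 1500 cells/well, in buffer with phosphodiesterase inhibitors IBMX and RO20 (100 uM each). Signal converted to [cGMP] by calibration curve; EC50s fitted by 4-parameter logistic; 50 nM h-ANP as positive response.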

| EC50 | Structure (SMILES) |
| --- | --- |
| 712 nM | CN(C)S(=O)(=O)Nc1ccc([C@@H](CCN2CC=CCC2)NC(=O)c2nc3cc4c(nc3s2)CC[C@H](C(C)(C)C)C4)cn1 (racemic) [Example 208, rac-(7S)-7-tert-butyl-N-[rac-(1R)-1-[6-(dimethylsulfamoylamino)-3-pyridyl]-3-(1,2,3,6-tetrahydropyridin-1-ium-1-yl)propyl]-5,6,7,8-tetrahydrothiazolo[5,4-b]quinoline-2-carboxamide; 2,2,2-trifluoroacetate] |
| 1440 nM | CC(C)(C)[C@H]1CCc2nc3sc(C(=O)N[C@H](CCN4CCC(O)CC4)c4ccc(-c5ccc(O)cc5)cc4)nc3cc2C1 (racemic) [Example 129, rac-(7S)-7-tert-butyl-N-[rac-(1R)-1-[4-(4-hydroxyphenyl)phenyl]-3-(4-hydroxypiperidin-1-ium-1-yl)propyl]-5,6,7,8-tetrahydrothiazolo[5,4-b] quinoline-2-carboxamide; 2,2,2-trifluoroacetate] |
| 350 nM | CC(C)(C)[C@H]1CCc2nc3sc(C(=O)N[C@H](CCN4CCC(O)CC4)c4ccc(N5CCOC5=O)nc4)nc3cc2C1 (racemic) [Example 186, rac-(7S)-7-tert-butyl-N-[rac-(1R)-3-(4-hydroxy-1-piperidyl)-1-[6-(2-oxooxazolidin-3-yl)-3-pyridyl]propyl]-5,6,7,8-tetrahydrothiazolo[5,4-b]quinoline-2-carboxamide] |
| 621 nM | CN1CC(NC(=O)c2cccc([C@@H](CCN3CC4C(C3)C4C(=O)O)NC(=O)c3nc4cc5c(nc4s3)CC[C@H](C(C)(C)C)C5)c2)C1 (mixture of isomers) [Example 108, 3-[rac-(3R)-3-[3-[(1-methylazetidin-1-ium-3-yl)carbamoyl]phenyl]-3-[[rac-(7S)-7-tert-butyl-5,6,7,8-tetrahydrothiazolo [5,4-b]quinoline-2-carbonyl]amino]propyl]-3-azabicyclo[3.1.0]hexane-6-carboxylic acid; 2,2,2-trifluoroacetate] |
| 991 nM | Cc1[nH]cnc1-c1ccc([C@@H](CCN2CCC(O)CC2)NC(=O)c2nc3cc4c(nc3s2)CC[C@H](C(C)(C)C)C4)cc1 (racemic) [Example 174, rac-(7S)-7-tert-butyl-N-[rac-(1R)-3-(4-hydroxy-1-piperidyl)-1-[4-(5-methyl-1H-imidazol-4-yl)phenyl]propyl]-5,6,7,8-tetrahydrothiazolo[5,4-b]quinoline-2-carboxamide] |
| 939 nM | CN1CC(NC(=O)c2cccc([C@@H](CCN3CC[C@H](C(=O)O)C3)NC(=O)c3nc4cc5c(nc4s3)CC[C@H](C(C)(C)C)C5)c2)C1 (racemic) [Example 113, rac-(3S)-1-[rac-(3R)-3-[3-[(1-methylazetidin-1-ium-3-yl)carbamoyl]phenyl]-3-[[rac-(7S)-7-tert-butyl-5,6,7,8-tetrahydrothiazolo[5,4-b]quinoline-2-carbonyl]amino]propyl]pyrrolidine-3-carboxylic acid; 2,2,2-trifluoroacetate] |
| 224 nM | CN1CCC(NC(=O)c2cccc([C@@H](CCN3CCC(C(=O)O)CC3)NC(=O)c3nc4cc5c(nc4s3)CC[C@H](C(C)(C)C)C5)c2)C1 (mixture of isomers) [Example 121, 1-[rac-(3R)-3-[3-[(1-methylpyrrolidin-3-yl)carbamoyl]phenyl]-3-[[rac-(7S)-7-tert-butyl-5,6,7,8-tetrahydrothiazolo [5,4-b]quinoline-2-carbonyl]amino]propyl]piperidine-4-carboxylic acid] |

Further lines, the molecule ahead of its results:

| Structure (SMILES) | EC50 |
| --- | --- |
| CN1CC(NC(=O)c2cccc([C@@H](CCN3CCC(c4nnn[nH]4)CC3)NC(=O)c3nc4cc5c(nc4s3)CC[C@H](C(C)(C)C)C5)c2)C1 (racemic) [Example 103, rac-(7S)-7-tert-butyl-N-[rac-(1R)-1-[3-[(1-methylazetidin-1-ium-3-yl)carbamoyl]phenyl]-3-[4-(1H-tetrazol-5-yl)-1-piperidyl]propyl]-5,6,7,8-tetrahydrothiazolo[5,4-b] quinoline-2-carboxamide; 2,2,2-trifluoroacetate] | 160 nM |
| CC(C)(C)[C@H]1CCc2nc3sc(C(=O)N[C@H](CCN[C@H]4COC[C@@H]4O)c4ccc(-c5ccc(=O)[nH]c5)cc4)cc3cc2C1 (racemic) [Example 69, [rac-(3S,4R)-4-hydroxytetrahydrofuran-3-yl]-[rac-(3R)-3-[4-(6-oxo-1H-pyridin-3-yl)phenyl]-3-[[rac-(6S)-6-tert-butyl-5,6,7,8-tetrahydrothieno[2,3-b]quinoline-2-carbonyl]amino]propyl] ammonium;formate] | 1830 nM |
| CN(C)CC[C@@H](NC(=O)c1nc2cc3c(nc2s1)CC[C@H](C(C)(C)C)C3)c1cccc(C(=O)NCC2CCN(C)C2)c1 (mixture of isomers) [Example 88, rac-(7S)-7-tert-butyl-N-[rac-(1R)-3-(dimethylamino)-1-[3-[(1-methylpyrrolidin-3-yl)methylcarbamoyl]phenyl]propyl]-5,6,7,8-tetrahydrothiazolo[5,4-b] quinoline-2-carboxamide] | 230 nM |
| CC(C)(C)[C@H]1CCc2nc3sc(C(=O)N[C@H](CCN4CCC(O)CC4)c4ccc(-c5cn[nH]c5)cc4)nc3cc2C1 (racemic) [Example 80, rac-(7S)-7-tert-butyl-N-[rac-(1R)-3-(4-hydroxypiperidin-1-ium-1-yl)-1-[4-(1H-pyrazol-4-yl)phenyl]propyl]-5,6,7,8-tetrahydrothiazolo[5,4-b]quinoline-2-carboxamide; formate] | 753 nM |
| CC(C)(C)C1CCc2nc3sc(C(=O)NC(CCN4CC5C(CO)C5C4)c4ccc(-c5ccc(=O)[nH]c5)cc4)cc3cc2C1 (racemic) [Example 27, rac-(6S)-6-tert-butyl-N-[rac-(1R)-3-[6-(hydroxymethyl)-3-azoniabicyclo[3.1.0]hexan-3-yl]-1-[4-(6-oxo-1H-pyridin-3-yl)phenyl]propyl]-5,6,7,8-tetrahydrothieno[2,3-b]quinoline-2-carboxamide;formate] | 408 nM |
| CC(C)(C)[C@H]1CCc2nc3sc(C(=O)N[C@H](CCN4CCCC5(CCNC5=O)C4)c4cccc(NS(C)(=O)=O)c4)cc3cc2C1 (mixture of isomers) [Example 19, ammonium; methylsulfonyl-[3-[rac-(1R)-3-(1-oxo-2,9-diazaspiro[4.5]decan-9-y1)-1-[[rac-(6S)-6-tert-butyl-5,6,7,8-tetrahydrothieno[2,3-b]quinoline-2-carbonyl]amino]propyl]phenyl]azanide] | 1580 nM |
| CC(C)(C)[C@H]1CCc2nc3sc(C(=O)N[C@H](CCN4CCC(F)CC4)c4ccc(-c5ccc(=O)[nH]c5)cc4)cc3cc2C1 (racemic) [Example 59, rac-(6S)-6-tert-butyl-N-[rac-(1R)-3-(4-fluoropiperidin-1-ium-1-yl)-1-[4-(6-oxo-1H-pyridin-3-yl)phenyl]propyl]-5,6,7,8-tetrahydrothieno[2,3-b]quinoline-2-carboxamide;formate] | 1010 nM |
| CN(C)CC[C@@H](NC(=O)c1nc2cc3c(nc2s1)CC[C@H](C(C)(C)C)C3)c1cccc(C(=O)NC2CCN(CC(F)(F)F)C2)c1 (mixture of isomers) [Example 100, rac-(7S)-7-tert-butyl-N-[rac-(1R)-3-(dimethyl-amino)-1-[3-[[1-(2,2,2-trifluoroethyl)pyrrolidin-3-yl]carbamoyl]phenyl]propyl]-5,6,7,8-tetrahydrothiazolo[5,4-b] quinoline-2-carboxamide] | 2000 nM |
| COC1CCN(CC[C@@H](NC(=O)c2cc3cc4c(nc3s2)CC[C@H](C(C)(C)C)C4)c2ccc(-c3ccc(=O)[nH]c3)cc2)CC1 (racemic) [Example 63, rac-(6S)-6-tert-butyl-N-[rac-(1R)-3-(4-methoxypiperidin-1-ium-1-yl)-1-[4-(6-oxo-1H-pyridin-3-yl)phenyl]propyl]-5,6,7,8-tetrahydrothieno[2,3-b]quinoline-2-carboxamide;formate] | 1190 nM |
| CC(C)(C)[C@H]1CCc2nc3sc(C(=O)N[C@H](CCN4CCCCC4)c4ccc(-c5cncnc5)cc4)cc3cc2C1 (racemic) [Example 7, rac-(6S)-6-tert-butyl-N-[rac-(1R)-3-(1-piperidyl)-1-(4-pyrimidin-5-ylphenyl)propyl]-5,6,7,8-tetrahydrothieno[2,3-b]quinoline-2-carboxamide] | 2000 nM |
| CC(C)(C)[C@H]1CCc2nc3sc(C(=O)N[C@H](CCNC4COC4)c4cccc(NS(C)(=O)=O)c4)cc3cc2C1 (racemic) [Example 21, ammonium; methylsulfonyl-[3-[rac-(1R)-3-(oxetan-3-ylamino)-1-[[rac-(6S)-6-tert-butyl-5,6,7,8-tetrahydrothieno[2,3-b]quinoline-2-carbonyl]amino]propyl]phenyl]azanide] | 1770 nM |
